Measured values reported in paper PMC9169222, “Impedance-Based Phenotypic Readout of Transporter Function: A Case for Glutamate Transporters” (Frontiers in Pharmacology, 2022).
“Also recorded” adds a separate entry of the source. Structures can show the parent of a compound that is named as a salt. Where two headings read alike, the source gives them in different places.

Assays:
[1] = target: T1, EAAT1 (JumpIn-EAAT1-mock cells) (Homo sapiens, UniProt P43003); test: Impedance-based TRACT assay (xCELLigence) on mock-transfected JumpIn-EAAT1 cells; type: cell-based; details: no inhibitor
T1 construct: expressed in transfected cells; host or cells: Jump In T-REx HEK 293
Experimental: In short, cells are cultured in medium on gold-plated electrodes in microwell E-plates.
Assays were performed at 37°C and 5% CO2 in 96-well PET E-plates in a total volume of 100 µl per well. Prior to cell seeding, the baseline impedance (Z0) was measured in the recording station in 40 µl (two compound additions) or 45 µl (one compound addition) medium in the presence (+) or absence (−) of 1 μg/ml dox. All compounds were diluted in phosphate-buffered saline (PBS) and added in 5 µl per addition using a VIAFLO 96 handheld electronic 96 channel pipette (INTEGRA Biosciences, Tokyo, Japan). When DMSO was used as a solvent for a compound, the final amount of DMSO was kept at 0.1% per well and was included in the vehicle (PBS/DMSO). All conditions were tested at two technical replicates per plate.
Transiently transfected JumpIn-EAAT1 cells were detached using only PBS/EDTA. The E-plate was left to rest at room temperature for 30 min prior to replacement in the recording station at 37°C and 5% CO2. Cell growth was recorded overnight for 22 h. If a pretreatment was required for the experiment, the cells were pretreated after 22 h with either a concentration of inhibitor or vehicle (PBS/DMSO) and cells were monitored for 60 min. For GPCR antagonist experiments, a maximum concentration of LY341495 (1 µM) was used. […] After the pretreatment, cells were stimulated with substrate or vehicle (PBS). […] After stimulation the impedance was measured for at least 2 h. […] Properly washed plates were re-used up to two times.
Experimental data was recorded using RTCA Software v2.0 or v2.1.1 (ACEA Biosciences). In the RTCA Software CI values were normalized to the time point prior to substrate/agonist stimulation resulting in normalized Cell Index (nCI) values. The nCI data were exported and subsequent analyses and data visualizations were done using GraphPad Prism v9 (GraphPad Software, San Diego, CA, United States). […] The potency values of substrates and inhibitory potencies of EAAT inhibitors were determined by fitting the net AUC data to a sigmoidal concentration-effect curve with a variable slope.

JumpIn-EAAT1 cells = test: Targeted metabolomics (LC-MS/MS) of intracellular metabolite levels; type: cell-based, human; details: 1 mM substrate, 2 h
Experimental: JumpIn-EAAT1 cells were plated at 150,000 cells/well in 24 well poly-L-lysine coated plates in culture medium in the absence (−dox) or presence (+dox) of 1 μg/ml doxycycline and grown at 37°C and 5% CO2. After 24 h, the medium was refreshed and cells were pretreated with vehicle (PBS/DMSO) or 10 µM TFB-TBOA. […] For lysis, cells were first gently washed with room temperature bicarbonate buffer (91 mM NH4HCO3, pH 7.4). […] The cells were then scraped and transferred to a pre-cooled Eppendorf tube and immediately snap frozen in liquid nitrogen. Samples were thawed on ice before being centrifuged at 16,000 × g for 10 min at 4°C. The clarified metabolite-containing supernatants were moved into a high-performance liquid chromatography vial and stored at −80°C until LC-MS/MS analysis.
Cell extracts were dried using a nitrogen evaporator. The dry residue was reconstituted in 16 µl H2O and 4 µl of sample extract was used for LC-MS/MS analysis. […] The column was maintained at a temperature of 40°C and 4 µl of sample was injected per run. The mobile phase A was 3% MeOH (v/v), 10 mM tributylamine, 15 mM acetic acid in H2O, and mobile phase B was 10 mM tributylamine, 15 mM acetic acid in MeOH. The gradient elution with a flow rate 0.25 mL/min was performed for a total time of 24 min. […] The metabolites of interest were detected using a dynamic Multiple Reaction Monitoring (MRM) mode. The MassHunter 10.0 software (Agilent Technologies) was used for the data processing. Ten-point linear calibration curves with internal standardization were constructed for the quantification of metabolites.
Volcano plots were generated to visualize the significant up- or downregulation of intracellular metabolite concentrations. The log2 fold change upon substrate addition is plotted against the −log10 adjusted p-value.

EAAT1-3 = details: read-out: Steady-state affinities (Km), ref Arriza et al., 1994, Tzingounis and Wadiche, 2007; cited from earlier work

T1 sequence (P43003 whole entry, the tested form may be a part): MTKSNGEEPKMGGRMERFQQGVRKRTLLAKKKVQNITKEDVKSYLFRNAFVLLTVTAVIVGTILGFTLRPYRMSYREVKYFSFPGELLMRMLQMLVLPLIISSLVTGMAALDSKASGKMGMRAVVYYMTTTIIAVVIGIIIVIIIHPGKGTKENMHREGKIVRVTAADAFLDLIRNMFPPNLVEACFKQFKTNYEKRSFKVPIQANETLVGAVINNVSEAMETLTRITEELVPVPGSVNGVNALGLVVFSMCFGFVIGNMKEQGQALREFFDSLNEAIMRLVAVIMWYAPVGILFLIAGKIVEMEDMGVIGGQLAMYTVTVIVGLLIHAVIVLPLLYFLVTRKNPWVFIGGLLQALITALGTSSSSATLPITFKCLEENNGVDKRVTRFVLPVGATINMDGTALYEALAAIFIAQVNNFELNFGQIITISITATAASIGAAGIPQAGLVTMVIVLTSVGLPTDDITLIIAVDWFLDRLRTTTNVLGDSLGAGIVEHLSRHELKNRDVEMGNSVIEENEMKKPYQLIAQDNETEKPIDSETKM

In the case of `N[C@@H](CCC(=O)O)C(=O)O` [L-glutamate, L-glutamic acid monosodium salt monohydrate], the EC50 ([1]; +dox, net AUC 0–15 min, read-out: Substrate pEC50 ± SEM (AUC = 0–15 min) (converted)) is reported as over 1000 µM, the EC50 ([1]; +dox, net AUC 0–120 min, read-out: Substrate pEC50 ± SEM (AUC = 0–120 min) (converted)) is reported as 316 µM and the EC50 ([1]; Substrate pEC50 ± SEM (AUC = 0–120 min), −dox, net AUC 0–120 min) is reported as 100 µM. For the same compound, the “Intracellular cAMP levels” value (JumpIn-EAAT1 cells) was “significant elevations”, the Intracellular glutamine level (JumpIn-EAAT1 cells) was “not significantly altered” and the “Levels of TCA cycle intermediates and related metabolites” value (JumpIn-EAAT1 cells) was “increased”. For the same compound, the “Increase of intracellular aspartate” value (JumpIn-EAAT1 cells; +dox) was 5 fold, the “Increase of intracellular glutamate” value (JumpIn-EAAT1 cells; +dox) was 5 fold and the Intracellular taurine level (JumpIn-EAAT1 cells; +dox) was “significantly reduced; also recorded: significant decrease”. For the same compound, the Km (EAAT1-3) was about 20 µM.
